{
  "source": "patent US12630602B2",
  "about": "“Methods and compositions for treating diseases and disorders of the nervous system” (Rutgers, The State University of New Jersey, priority 2016, dated 2026)",
  "test_system": "retinal cells expressing the inhibitory hM4Di DREADD",
  "assay": "Electroretinography (ERG) after CNO in rats expressing hM4Di DREADD in retina",
  "format": "in vivo",
  "data": [
    {"smiles": "C[N+]1([O-])CCN(C2=Nc3cc(Cl)ccc3Nc3ccccc32)CC1", "note": "[CNO, clozapine N-oxide]", "values": [
      {"measurement": "ERG wave", "setting": "CNO by intraperitoneal injection, 20 minutes after, rats with AAV-hSyn-hM4Di (FIG. 2C)", "result": "inhibition of the ERG wave"},
      {"measurement": "ERG, function in retinal cells", "setting": "CNO eye drops, 10 minutes and 20 minutes after, rats with AAV-hSyn-hM4Di (FIG. 2D)", "result": "decreased function in retinal cells at both timepoints"},
      {"measurement": "eliciting DREADD function, eye drops versus systemic delivery", "setting": "ERG, CNO via eye drops compared with systemic delivery", "result": "at least as successful"}
    ]}
  ]
}
